Source: PubChem BioAssay (NCI)
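GI50: concentration for 50% inhibition of growth. TGI marks complete inhibition of growth.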

Legend:
Experiment in all cases: NCI tumour cell line growth inhibition, 384-well format
CCRF-CEM leukemia = test system: CCRF-CEM leukemia
KM12 colon = test system: KM12 colon
OVCAR-8 ovarian = test system: OVCAR-8 ovarian
RPMI-8226 leukemia = test system: RPMI-8226 leukemia
786-0 renal = test system: 786-0 renal
SF-295 CNS = test system: SF-295 CNS
TK-10 renal = test system: TK-10 renal
MCF7 breast = test system: MCF7 breast
DU-145 prostate = test system: DU-145 prostate
K-562 leukemia = test system: K-562 leukemia
COLO 205 colon = test system: COLO 205 colon
SW-620 colon = test system: SW-620 colon
HCT-15 colon = test system: HCT-15 colon
MDA-MB-468 breast = test system: MDA-MB-468 breast
SR leukemia = test system: SR leukemia
HOP-92 NSCLC = test system: HOP-92 NSCLC
LOX IMVI melanoma = test system: LOX IMVI melanoma
SK-MEL-28 melanoma = test system: SK-MEL-28 melanoma
OVCAR-5 ovarian = test system: OVCAR-5 ovarian
UACC-257 melanoma = test system: UACC-257 melanoma
M14 melanoma = test system: M14 melanoma
SNB-19 CNS = test system: SNB-19 CNS
SF-539 CNS = test system: SF-539 CNS
T-47D breast = test system: T-47D breast
NCI/ADR-RES ovarian = test system: NCI/ADR-RES ovarian
HS 578T breast = test system: HS 578T breast
OVCAR-3 ovarian = test system: OVCAR-3 ovarian
SK-MEL-2 melanoma = test system: SK-MEL-2 melanoma
IGROV1 ovarian = test system: IGROV1 ovarian
SK-MEL-5 melanoma = test system: SK-MEL-5 melanoma
HCT-116 colon = test system: HCT-116 colon
SNB-75 CNS = test system: SNB-75 CNS
OVCAR-4 ovarian = test system: OVCAR-4 ovarian
UACC-62 melanoma = test system: UACC-62 melanoma
SF-268 CNS = test system: SF-268 CNS
A549 NSCLC = test system: A549 NSCLC
HL-60(TB) leukemia = test system: HL-60(TB) leukemia
NCI-H322M lung = test system: NCI-H322M lung
HOP-62 NSCLC = test system: HOP-62 NSCLC
MDA-MB-231 breast = test system: MDA-MB-231 breast
NCI-H226 lung = test system: NCI-H226 lung
NCI-H522 lung = test system: NCI-H522 lung
A498 renal = test system: A498 renal
EKVX NSCLC = test system: EKVX NSCLC
HCC-2998 colon = test system: HCC-2998 colon
MDA-MB-435 melanoma = test system: MDA-MB-435 melanoma
HT29 colon = test system: HT29 colon

## CCS(=O)(=O)N1CCC(C(C)n2c(C)c(C(=O)NCc3c(OC)cc(C)[nH]c3=O)c3ccccc32)CC1 (centres undefined)
CCRF-CEM leukemia
  GI50: > 100 µM
  TGI: > 100 µM
KM12 colon
  GI50: > 100 µM
  TGI: > 100 µM
OVCAR-8 ovarian
  GI50: > 100 µM
  TGI: > 100 µM
RPMI-8226 leukemia
  GI50: 7.49 µM
  TGI: > 86.4 µM
786-0 renal
  GI50: > 100 µM
  TGI: > 100 µM
SF-295 CNS
  GI50: > 100 µM
  TGI: > 100 µM
TK-10 renal
  GI50: > 100 µM
  TGI: > 100 µM
MCF7 breast
  GI50: > 78.3 µM
  TGI: > 100 µM
DU-145 prostate
  GI50: > 100 µM
  TGI: > 100 µM
K-562 leukemia
  GI50: > 100 µM
  TGI: > 100 µM
COLO 205 colon
  GI50: > 100 µM
  TGI: > 100 µM
SW-620 colon
  GI50: > 100 µM
  TGI: > 100 µM
HCT-15 colon
  GI50: > 100 µM
  TGI: > 100 µM
MDA-MB-468 breast
  GI50: 40 µM
  TGI: > 100 µM
SR leukemia
  GI50: > 100 µM
  TGI: > 100 µM
HOP-92 NSCLC
  GI50: > 100 µM
  TGI: > 100 µM
LOX IMVI melanoma
  GI50: > 78.6 µM
  TGI: > 100 µM
SK-MEL-28 melanoma
  GI50: > 100 µM
  TGI: > 100 µM
OVCAR-5 ovarian
  GI50: > 100 µM
  TGI: > 100 µM
UACC-257 melanoma
  GI50: > 100 µM
  TGI: > 100 µM
M14 melanoma
  GI50: > 100 µM
  TGI: > 100 µM
SNB-19 CNS
  GI50: > 100 µM
  TGI: > 100 µM
SF-539 CNS
  GI50: > 100 µM
  TGI: > 100 µM
T-47D breast
  GI50: > 64.5 µM
  TGI: > 100 µM
NCI/ADR-RES ovarian
  GI50: > 100 µM
  TGI: > 100 µM
HS 578T breast
  GI50: > 100 µM
  TGI: > 100 µM
OVCAR-3 ovarian
  GI50: > 100 µM
  TGI: > 100 µM
SK-MEL-2 melanoma
  GI50: > 100 µM
  TGI: > 100 µM
IGROV1 ovarian
  GI50: > 100 µM
  TGI: > 100 µM
SK-MEL-5 melanoma
  GI50: > 100 µM
  TGI: > 100 µM
HCT-116 colon
  GI50: > 100 µM
  TGI: > 100 µM
SNB-75 CNS
  GI50: > 100 µM
  TGI: > 100 µM
OVCAR-4 ovarian
  GI50: > 100 µM
  TGI: > 100 µM
UACC-62 melanoma
  GI50: > 100 µM
  TGI: > 100 µM
SF-268 CNS
  GI50: > 42.6 µM
  TGI: > 96.3 µM
A549 NSCLC
  GI50: > 100 µM
  TGI: > 100 µM
HL-60(TB) leukemia
  GI50: > 100 µM
  TGI: > 100 µM
NCI-H322M lung
  GI50: > 100 µM
  TGI: > 100 µM
HOP-62 NSCLC
  GI50: > 87.9 µM
  TGI: > 100 µM
MDA-MB-231 breast
  GI50: > 100 µM
  TGI: > 100 µM
NCI-H226 lung
  GI50: > 100 µM
  TGI: > 100 µM
NCI-H522 lung
  GI50: > 100 µM
  TGI: > 100 µM
A498 renal
  GI50: > 100 µM
  TGI: > 100 µM
EKVX NSCLC
  GI50: > 100 µM
  TGI: > 100 µM
HCC-2998 colon
  GI50: > 100 µM
  TGI: > 100 µM
MDA-MB-435 melanoma
  GI50: > 100 µM
  TGI: > 100 µM
HT29 colon
  GI50: > 100 µM
  TGI: > 100 µM
